The values below come from patent US4798832A, “Pyrido[1,2-a]pyrimidine compounds, corresponding intermediates and use as SRS-A antagonists” (Tokyo Tanabe Company, Limited, priority 1986, dated 1989).

≈ marks a conversion by molar mass, not a printed value. Counter-ions that a name gives are not always drawn.

In one data set the test system is leukotriene D4. The experiment in a line: In vitro test: antagonistic effect on leukotriene D4-induced contraction of excised guinea pig terminal ileum. The data set is classed as cell-based, guinea pig (male, Hartley strain). The following applies: confirmatory experiment by the inventors; result in words. On the procedure:
(§1) The antagonistic effect on leukotriene D4 of the present compounds [I] was tested by using the terminal ileum excised from a male guinea pig of the Hartley strain. Specifically, the terminal ileum was suspended, under aerated conditions, in 10 ml of Tyrode's solution containing 5×10^-7 M atropine and 1×10^-6 M mepyramine. Then, a test compound and leukotriene D4 (manufactured by Wako Junyaku Co., Ltd.) were successively added thereto with an interval of 30 seconds. After the lapse of 4 to 6 minutes, the degree of contraction of the ileum was measured with a Model TD-112S Isotonic Transducer (manufactured by Nippon Koden Co., Ltd.). The test compound and leukotriene D4 were used in such amounts as to give concentrations of 10^-9 to 10^-3 g/ml and 0.3 ng/ml, respectively.
(§2) The antagonistic effect on leukotriene D4 of each test compound was evaluated in terms of the concentration of the test compound at which the ileum contraction reaction induced by leukotriene D4 was inhibited by 50% (hereinafter referred to as IC50) Specifically, at varying concentrations of each test compound, the percent inhibition of contraction was calculated from the measured degree of contraction of the ileum according the following equation [formula] On the basis of the data thus obtained, a dose-response curve was prepared and used to determine the IC50 value of the test compound.

Assay in data set [1]: as above
The following applies: guinea pig terminal ileum contraction, leukotriene D4 0.3 ng/ml, with atropine and mepyramine; for IC50: Cavia porcellus. The data set is classed as cell-based, guinea pig (male, Hartley strain). On the procedure:
as §1, §2

Data set [2] is described as follows: Toxicity test: acute toxicity (LD50) in rats. The following applies: rat, in vivo. Here is the method:
(§3) The acute toxicity (LD50) of several typical examples of the present compounds [I] was tested of 5-weeks-old male ddY strain mice and male SD straih rats. For this purpose, the compounds of Examples 2 and 4 were selected as typical examples. […] For rats, their LD50 values were not less than 4.0 g/kg when administered orally, and not less than 200 mg/kg when administered intravenously.

Data set [3] can be described thus: Toxicity test: acute toxicity (LD50) in mice. Conditions: mouse, in vivo. On the procedure:
as §3

The term IC50 denotes the concentration that gives 50% inhibition. Turning to `O=C(O)c1cnc2c(OCc3ccccc3)cccn2c1=O` [Compound A, 9-Benzyloxy-4-oxo-pyrido[1,2-a]pyrimidine-3-carboxylic acid, reference compound], in the data set with leukotriene D4, the “antagonistic effect on SRS-A as represented by leukotriene D4” value was “no antagonistic effect on SRS-A”. The IC50 in data set [1] is at least 10 µg/mL.

For the compound `CCCc1c(OCc2cccn3c(=O)c(C(=O)O)cnc23)ccc(C(C)=O)c1O` [Example 1, 9-(4-Acetyl-3-hydroxy-2-n-propylphenoxymethyl)-4-oxo-pyrido[1,2-a]pyrimidine-3-carboxylic acid], the half-maximal inhibitory concentration (IC50) in data set [1] turned out to be 0.03 µg/mL (≈ 0.0757 µM).

For orientation: LD50 means the dose at which mortality reaches 50%. In data set [1], `CCCc1c(OCc2cccn3c(=O)c(CC(=O)O)cnc23)ccc(C(C)=O)c1O` [Example 2, [9-(4-Acetyl-3-hydroxy-2-n-propylphenoxymethyl)-4-oxo-pyrido[1,2-a]pyrimidin-3-yl]acetic acid] came in with an IC50 of 0.04 µg/mL (≈ 0.0975 µM). For the same compound, the LD50 in data set [2] (intravenous) is at least 200 mg/kg; in data set [2] (oral) it was at least 4000 mg/kg; in data set [3] (intravenous) it was at least 100 mg/kg; in data set [3] (oral) it was at least 4000 mg/kg.

Consider `CCCc1c(OCc2c(C)ccn3c(=O)c(CC(=O)O)cnc23)ccc(C(C)=O)c1O` [Example 3, [9-(4-Acetyl-3-hydroxy-2-n-propylphenoxymethyl)-8-methyl-4-oxo-pyrido[1,2-a]pyrimidin-3-yl]acetic acid], for which it took 0.8 µg/mL (≈ 1.88 µM) to reach half-maximal inhibition in data set [1] (IC50).

On to `CCCc1c(OCc2cccn3c(=O)c(CCC(=O)O)cnc23)ccc(C(C)=O)c1O` [Example 4, 3-[9-(4-Acetyl-3-hydroxy-2-n-propylphenoxymethyl)-4-oxo-pyrido[1,2-a]pyrimidin-3-yl]propionic acid], for which the “Antagonistic effect on leukotriene D4 IC50” value in data set [1] amounted to 0.01 µg/mL. For the same compound, the LD50 in data set [2] (intravenous) was at least 200 mg/kg; in data set [2] (oral) it was at least 4000 mg/kg; in data set [3] (intravenous) it was at least 100 mg/kg; in data set [3] (oral), at least 4000 mg/kg.

For the compound `CCCc1c(OCc2cc(Br)cn3c(=O)c(CCC(=O)O)cnc23)ccc(C(C)=O)c1O` [Example 5, 3-[9-(4-Acetyl-3-hydroxy-2-n-propylphenoxymethyl)-7-bromo-4-oxo-pyrido[1,2-a]pyrimidin-3-yl]propionic acid], half-maximal inhibition in data set [1] (IC50) was put at 0.3 µg/mL (≈ 0.596 µM).

For the compound `CCCc1c(OCc2ccc3ncc(CCC(=O)O)c(=O)n3c2)ccc(C(C)=O)c1O` [Example 6, 3-[7-(4-acetyl-3-hydroxy-2-n-propylphenoxymethyl)-4-oxo-pyrido[1,2-a]pyrimidin-3-yl]propionic acid], the half-inhibitory concentration (IC50) in data set [1] was 0.4 µg/mL (≈ 0.942 µM).

As to `CCCc1c(OCc2cccn3c(=O)c(CCC(=O)O)cnc23)ccc(C(C)=O)c1O` [Example 7, 3-[9-(4-Acetyl-3-hydroxy-2-n-propylphenoxymethyl)-4-oxo-pyrido[1,2-a]pyrimidin-3-yl]propionic acid potassium salt], in data set [1] (potassium salt), the “Antagonistic effect on leukotriene D4 IC50” value is 0.03 µg/mL.
